Molecules are shown by their SMILES.

The test system of one experiment is COV362. Briefly: drug sensitivity score (DSS) from 5-point dose-response viability curve (DSS (area-under-curve based score)); higher = more sensitive (stronger growth inhibition or killing); extreme values may be limits of the assay. To be noted: exposure time: 72 h; concentration range: 5 concentrations over 10,000-fold range. Put shortly: (§1)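 Drug sensitivity scores were calculated in Breeze software for each cell line and drug pair; higher scores indicate more sensitivity. A score of zero indicates no response. The underlying assay used 384-well plates: drugs were placed by an Echo 550 acoustic dispenser at five concentrations spanning a 10,000-fold range, 1,500 ovarian cancer or normal ovarian cells were added per well, and cells were kept 3 days at 37°C, 5% CO2. Viability was then measured with CellTiter-Glo luminescence on a PHERAstar FS.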
Consider `Cc1cnc(-c2ccccc2C(C)C)nc1NCc1ccc(-n2ccnn2)cc1` [ML323], for which the drug sensitivity score was 0. Same read-out and setting: with `Cc1ccc(C(=O)Nc2cccc(C(F)(F)F)c2)cc1Nc1nc(-c2cccnc2)nc2c1cnn2C` [NVP-BHG712] the figure was 5.6; with `COc1cc2c(cc1OCCCN1CCCC1)N=C(N)C21CCC1` [A-366], 1.2. Same read-out and setting: with `CS(=O)(=O)c1ccc(C(=O)Nc2ccc(Cl)c(-c3ccccn3)c2)c(Cl)c1` [Vismodegib] the figure was 0; with `COc1cc2c(Oc3ccc4[nH]c(C)cc4c3F)ncnc2cc1OCCCN1CCCC1` [Cediranib], 0; with `CCNC(=O)c1noc(-c2cc(C(C)C)c(O)cc2O)c1-c1ccc(CN2CCOCC2)cc1` [Luminespib], 13.8. On the same count and under the same terms, with `Cc1cnc(Nc2ccc(OCCN3CCCC3)cc2)nc1Nc1cccc(S(=O)(=O)NC(C)(C)C)c1` [Fedratinib] the figure was 6.1.

`CNC(=O)c1ccc(C)c(-n2c(C)cc(OCc3ccc(F)cc3F)c(Br)c2=O)c1` displayed a drug sensitivity score of 0. Still for that read-out and setting: with `Cc1nc(Nc2n[nH]c3c2CN(C(=O)N[C@H](CN(C)C)c2ccccc2)C3(C)C)c2sccc2n1` the figure was 7.3. Same read-out and setting: with `CCN(CC)Cc1ccc2cc(COC(=O)Nc3ccc(C(=O)NO)cc3)ccc2c1` [Givinostat] the figure was 2.2; with `CC(C)(C)Cn1c(N)nc2ccc(-c3[nH]c(C(C)(C)C)nc3-c3ccc(F)cc3)nc21` [Ralimetinib], 1.4. On the same count and under the same terms, with `COc1cc2nccc(Oc3ccc(NC(=O)NC4CC4)c(Cl)c3)c2cc1C(N)=O` [Lenvatinib] the figure was 0. `S=c1[nH]cnc2nc[nH]c12` [Mercaptopurine] showed a drug sensitivity score of 6.4. As for `CNc1nc(Nc2cn(C(C)(C)C#N)nc2C)ncc1C(F)(F)F` [GNE-0877], the drug sensitivity score was determined as 0.

For `COc1cc2nccc(Oc3ccc(NC(=O)C4(C(=O)Nc5ccc(F)cc5)CC4)cc3)c2cc1OC` [Cabozantinib], the drug sensitivity score was 0.2. Same read-out and setting: with `CN1CC[C@H](c2c(O)cc(O)c3c(=O)cc(-c4ccccc4Cl)oc23)[C@H](O)C1` [Alvocidib] the figure was 12.1; with `O=C1NC(=O)[C@@H](c2cn3c4c(cccc24)CCC3)[C@@H]1c1c[nH]c2ccccc12` [Tivantinib], 1.6. The same measure, in the same setting: with `C[C@@H](Nc1cc(F)cc(F)c1)c1cc(C(=O)N(C)C)cc2c(=O)cc(N3CCOCC3)oc12` [AZD-8186] the figure was 0. Still for that read-out and setting: with `O=C1Cc2cc(C(=O)NC3C[C@H]4CC[C@@H](C3)N4S(=O)(=O)CC3CCN(CCCC(F)(F)F)CC3)c(Cl)cc2N1` (stereo partly specified) the figure was 0; with `C/C(=C\c1csc(C)n1)[C@@H]1C[C@@H]2O[C@]2(C)CCC[C@H](C)[C@H](O)[C@@H](C)C(=O)C(C)(C)[C@@H](O)CC(=O)N1` [Ixabepilone], 1.3. With `COc1ccc(COc2cc3oc(=O)c4cc(C(C)O)ccc4c3cc2OC)cc1` (stereo unspecified) [Palomid-529], the drug sensitivity score was 0.

Consider `Nc1ncn([C@@H]2O[C@H](CO)[C@@H](O)[C@H]2O)c(=O)n1` [Azacitidine], for which the drug sensitivity score was 0.7. The same measure, in the same setting: with `Cc1nn(C)c(COc2ccc(N3CCN(S(=O)(=O)N(C)C)CC3)cc2)c1-c1cccc2c(CCCOc3cccc4ccccc34)c(C(=O)O)n(CCN3CCOCC3)c12` the figure was 2.8; with `C=C1C[C@@H]2[C@H](CC[C@]3(C)C(=O)CC[C@@H]23)[C@@]2(C)C=CC(=O)C=C12` [Exemestane], 0.

`C[C@@H]1C=C2C(=O)O[C@@H]3CC[C@H](C1)[C@]23O` [Galiellalactone] showed a drug sensitivity score of 2.9. Same read-out and setting: with `Cn1c(Nc2ccc(C(F)(F)F)cc2)nc2cc(Oc3ccnc(-c4ncc(C(F)(F)F)[nH]4)c3)ccc21` [NVP-RAF265] the figure was 0; with `Cn1ncc(Cl)c1-c1cc(C(=O)N[C@H](CN)Cc2ccc(F)c(F)c2)oc1Cl` [Uprosertib], 0. Regarding `CC1=C2C[C@H]3[C@@H](CC[C@@H]4C[C@H](NS(C)(=O)=O)CC[C@@]43C)[C@@H]2CC[C@@]2(C1)O[C@@H]1C[C@H](C)CN[C@H]1[C@H]2C` [Saridegib], the drug sensitivity score amounted to 0. The compound `COc1cc2c(Oc3ccc(NC(=O)C4(C(=O)Nc5ccc(F)cc5)CC4)cc3F)ccnc2cc1OCCCN1CCOCC1` [Foretinib] yielded a drug sensitivity score of 1.2.

The compound `COCCOc1cnc2ccn([C@H](C)c3nnc4c(F)cc(-c5cnn(C)c5)cn34)c(=O)c2c1` [AMG-337] yielded a drug sensitivity score of 0. Still for that read-out and setting: with `Nc1ccccc1NC(=O)c1ccc(CNC(=O)OCc2cccnc2)cc1` [Entinostat] the figure was 0.

The next experiment has as its system OVCAR8. The description is as above. To be noted: exposure time: 72 h; concentration range: 5 concentrations over 10,000-fold range. Put shortly:
as §1
In turn, `Cc1cnc(-c2ccccc2C(C)C)nc1NCc1ccc(-n2ccnn2)cc1` [ML323] had a drug sensitivity score of 0. Same read-out and setting: with `Cc1ccc(C(=O)Nc2cccc(C(F)(F)F)c2)cc1Nc1nc(-c2cccnc2)nc2c1cnn2C` [NVP-BHG712] the figure was 4.9; with `COc1cc2c(cc1OCCCN1CCCC1)N=C(N)C21CCC1` [A-366], 1; with `CS(=O)(=O)c1ccc(C(=O)Nc2ccc(Cl)c(-c3ccccn3)c2)c(Cl)c1` [Vismodegib], 0.

In turn, `COc1cc2c(Oc3ccc4[nH]c(C)cc4c3F)ncnc2cc1OCCCN1CCCC1` [Cediranib] came in with a drug sensitivity score of 0. Same read-out and setting: with `CCNC(=O)c1noc(-c2cc(C(C)C)c(O)cc2O)c1-c1ccc(CN2CCOCC2)cc1` [Luminespib] the figure was 18.8; with `Cc1cnc(Nc2ccc(OCCN3CCCC3)cc2)nc1Nc1cccc(S(=O)(=O)NC(C)(C)C)c1` [Fedratinib], 7.1. The compound `CNC(=O)c1ccc(C)c(-n2c(C)cc(OCc3ccc(F)cc3F)c(Br)c2=O)c1` had a drug sensitivity score of 0. The same measure, in the same setting: with `Cc1nc(Nc2n[nH]c3c2CN(C(=O)N[C@H](CN(C)C)c2ccccc2)C3(C)C)c2sccc2n1` the figure was 16.5. Still for that read-out and setting: with `CCN(CC)Cc1ccc2cc(COC(=O)Nc3ccc(C(=O)NO)cc3)ccc2c1` [Givinostat] the figure was 10. Still for that read-out and setting: with `CC(C)(C)Cn1c(N)nc2ccc(-c3[nH]c(C(C)(C)C)nc3-c3ccc(F)cc3)nc21` [Ralimetinib] the figure was 3.1; with `COc1cc2nccc(Oc3ccc(NC(=O)NC4CC4)c(Cl)c3)c2cc1C(N)=O` [Lenvatinib], 0. `S=c1[nH]cnc2nc[nH]c12` [Mercaptopurine]: the drug sensitivity score came out at 8.6. Still for that read-out and setting: with `CNc1nc(Nc2cn(C(C)(C)C#N)nc2C)ncc1C(F)(F)F` [GNE-0877] the figure was 0; with `COc1cc2nccc(Oc3ccc(NC(=O)C4(C(=O)Nc5ccc(F)cc5)CC4)cc3)c2cc1OC` [Cabozantinib], 0.

Source of the values: the supplement of paper PMC11616607.
